The values below come from patent publication US9751869B2, “LXR modulators” (BRISTOL-MYERS SQUIBB COMPANY, priority 2013, dated 2017).

This test has as its target T1, LXRβ (Homo sapiens, UniProt P55055).
T1 construct: Co-transfection expression plasmids, comprising full-length LXRα (pCMX-h LXRα or LXRβ (pCMX-hLXRβ)); expressed in transfected cells; host or cells: CV-1 African green monkey kidney cells, transient transfection with pCMX-hLXRβ
T1 sequence (P55055 1-460): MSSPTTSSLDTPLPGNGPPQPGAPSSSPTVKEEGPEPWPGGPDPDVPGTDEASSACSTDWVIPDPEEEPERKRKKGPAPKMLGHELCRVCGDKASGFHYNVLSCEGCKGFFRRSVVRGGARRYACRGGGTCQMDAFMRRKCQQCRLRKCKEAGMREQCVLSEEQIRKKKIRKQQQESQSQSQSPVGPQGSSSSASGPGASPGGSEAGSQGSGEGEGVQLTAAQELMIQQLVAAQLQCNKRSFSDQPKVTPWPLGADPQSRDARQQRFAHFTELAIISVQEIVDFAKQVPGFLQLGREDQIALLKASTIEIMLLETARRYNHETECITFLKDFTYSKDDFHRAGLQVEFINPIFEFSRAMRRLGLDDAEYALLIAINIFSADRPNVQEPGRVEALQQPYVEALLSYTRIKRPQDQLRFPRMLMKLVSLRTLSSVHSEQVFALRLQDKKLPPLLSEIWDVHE
T1 sequence (P19793 1-462 partner): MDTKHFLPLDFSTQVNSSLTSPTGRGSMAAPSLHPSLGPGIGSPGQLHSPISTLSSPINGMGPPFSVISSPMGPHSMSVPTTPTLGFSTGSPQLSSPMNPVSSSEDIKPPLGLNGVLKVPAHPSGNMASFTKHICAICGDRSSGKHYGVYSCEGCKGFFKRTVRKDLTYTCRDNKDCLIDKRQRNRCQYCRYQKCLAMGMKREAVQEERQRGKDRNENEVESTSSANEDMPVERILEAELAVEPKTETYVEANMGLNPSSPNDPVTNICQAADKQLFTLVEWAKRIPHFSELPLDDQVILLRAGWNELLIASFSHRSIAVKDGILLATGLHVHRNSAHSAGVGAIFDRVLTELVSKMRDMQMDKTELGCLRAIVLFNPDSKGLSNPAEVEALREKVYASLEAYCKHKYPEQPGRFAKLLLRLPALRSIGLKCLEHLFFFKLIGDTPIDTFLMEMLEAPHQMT
The test can be described thus: LXR/LXRE co-transfection assay (luciferase reporter) in CV-1 cells, LXRβ. To be noted: for EC50: CV-1 cells transfected with pCMX-hLXRβ and LXREx1-Tk-Luciferase, 20 hours incubation, read-out: LXRbeta agonism EC50; for Emax: CV-1 cells, relative to maximum response of high control N-(3-((4-fluorophenyl)-(naphthalene-2-sulfonyl)amino)propyl)-2,2-dimethylpropionamide, read-out: LXRbeta % EFFICACY
The class given is cell-based. Put shortly: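 Luciferase read-out after 20 h compound treatment at 37 °C of CV-1 cells carrying transfected hLXRβ plus one-copy LXRE reporter, endogenous RXR partnering. Sigmoidal fit of 10-point half-log curves (4 wells each) gave EC50; % efficacy versus maximal response of the propionamide reference agonist.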
For orientation: A reporter such as luciferase makes a cellular process visible.

Take `Cc1nc(-c2ccc3c(c2)OC(F)(F)O3)c(-c2cc(-c3cc(F)c(CO)c(S(C)(=O)=O)c3)ccc2-c2cc(C(F)(F)C(=O)N3CCCC3)nn2C)o1` [Example 83, 2-(5-(3-(4-(2,2-difluorobenzo[d][1,3]dioxol-5-yl)-2-methyloxazol-5-yl)-3′-fluoro-4′-(hydroxymethyl)-5′-(methylsulfonyl)-[1,1′-biphenyl]-4-yl)-1-methyl-1H-pyrazol-3-yl)-2,2-difluoro-1-(pyrrolidin-1-yl)ethanone]: the EC50 stood at 497 nM and the Emax stood at 62%.
For the compound `Cc1nc(-c2ccc3c(c2)OC(F)(F)O3)c(-c2cc(-c3cc(F)c(CO)c(S(C)(=O)=O)c3)ccc2-c2cc(C(F)(F)C(=O)NC(C)(C)C)nn2C)o1` [Example 84, N-tert-butyl-2-(5-(3-(4-(2,2-difluorobenzo[d][1,3]dioxol-5-yl)-2-methyloxazol-5-yl)-3′-fluoro-4′-(hydroxymethyl)-5′-(methylsulfonyl)biphenyl-4-yl)-1-methyl-1H-pyrazol-3-yl)-2,2-difluoroacetamide], the EC50 turned out to be 61 nM and the Emax turned out to be 26%.
For the compound `CNC(=O)C(F)(F)c1cc(-c2ccc(-c3cc(F)cc(S(C)(=O)=O)c3)cc2-c2oc(C)nc2-c2ccc3c(c2)OC(F)(F)O3)n(C)n1` [Example 85, 2-(5-(3-(4-(2,2-difluorobenzo[d][1,3]dioxol-5-yl)-2-methyloxazol-5-yl)-3′-fluoro-5′-(methylsulfonyl)biphenyl-4-yl)-1-methyl-1H-pyrazol-3-yl)-2,2-difluoro-N-methylacetamide], the EC50 was determined as 588 nM and the Emax was determined as 55%.
Take `Cc1nc(-c2ccc3c(c2)OC(F)(F)O3)c(-c2cc(-c3cc(F)c(CO)c(S(C)(=O)=O)c3)ccc2-c2cc(C(F)(F)C(=O)NCCO)nn2C)o1` [Example 86, 2-(5-(3-(4-(2,2-difluorobenzo[d][1,3]dioxol-5-yl)-2-methyloxazol-5-yl)-3′-fluoro-4′-(hydroxymethyl)-5′-(methylsulfonyl)biphenyl-4-yl)-1-methyl-1H-pyrazol-3-yl)-2,2-difluoro-N-(2-hydroxyethyl)acetamide]: the 50% effective concentration (EC50) came out at 715 nM and the Emax turned out to be 37%.
Taken in the same sequence, the figures for `Cc1nc(-c2ccc3c(c2)OC(F)(F)O3)c(-c2cc(-c3cc(F)c(CO)c(S(C)(=O)=O)c3)ccc2-c2cc(C(F)(F)C(=O)NCC3CC3)nn2C)o1` [Example 87, N-(cyclopropylmethyl)-2-(5-(3-(4-(2,2-difluorobenzo[d][1,3]dioxol-5-yl)-2-methyloxazol-5-yl)-3′-fluoro-4′-(hydroxymethyl)-5′-(methylsulfonyl)biphenyl-4-yl)-1-methyl-1H-pyrazol-3-yl)-2,2-difluoroacetamide] were 134 nM and 33%.
Taken in the same sequence, the figures for `Cc1nc(-c2ccc3c(c2)OC(F)(F)O3)c(-c2cc(-c3cc(F)c(CO)c(S(C)(=O)=O)c3)ccc2-c2cc(C(F)(F)C(=O)NC3CC3)nn2C)o1` [Example 88, N-cyclopropyl-2-(5-(3-(4-(2,2-difluorobenzo[d][1,3]dioxol-5-yl)-2-methyloxazol-5-yl)-3′-fluoro-4′-(hydroxymethyl)-5′-(methylsulfonyl)biphenyl-4-yl)-1-methyl-1H-pyrazol-3-yl)-2,2-difluoroacetamide] were 85 nM and 49%.
Take `Cc1nc(-c2ccc3c(c2)OC(F)(F)O3)c(-c2cc(-c3cc(F)c(CO)c(S(C)(=O)=O)c3)ccc2-c2cc(C(F)(F)C(=O)NCC(N)=O)nn2C)o1` [Example 89, N-(2-amino-2-oxoethyl)-2-(5-(3-(4-(2,2-difluorobenzo[d][1,3]dioxol-5-yl)-2-methyloxazol-5-yl)-3′-fluoro-4′-(hydroxymethyl)-5′-(methylsulfonyl)biphenyl-4-yl)-1-methyl-1H-pyrazol-3-yl)-2,2-difluoroacetamide]: the EC50 was 4780 nM and the Emax came to 37%.

Usually EC50 stands for the concentration at which the effect is half-maximal.
